Assay results as given in patent US20240368159A1, “HPK1 DEGRADERS, COMPOSITIONS COMPRISING THE HPK1 DEGRADER, AND METHODS OF USING THE SAME” (BIOFRONT LTD, priority 2021, published 2024).

Columns and labels:
HPK1 protein [1] = biological target: T1, HPK1 protein (Homo sapiens, UniProt Q92918); test: HPK1 enzyme inhibition assay (ADP-Glo); format: biochemical; conditions: MBP substrate, ATP, ADP-Glo readout
T1 construct: purchased Signal Chem M23-11G-10
T1 sequence (Q92918 1-346 limits assumed): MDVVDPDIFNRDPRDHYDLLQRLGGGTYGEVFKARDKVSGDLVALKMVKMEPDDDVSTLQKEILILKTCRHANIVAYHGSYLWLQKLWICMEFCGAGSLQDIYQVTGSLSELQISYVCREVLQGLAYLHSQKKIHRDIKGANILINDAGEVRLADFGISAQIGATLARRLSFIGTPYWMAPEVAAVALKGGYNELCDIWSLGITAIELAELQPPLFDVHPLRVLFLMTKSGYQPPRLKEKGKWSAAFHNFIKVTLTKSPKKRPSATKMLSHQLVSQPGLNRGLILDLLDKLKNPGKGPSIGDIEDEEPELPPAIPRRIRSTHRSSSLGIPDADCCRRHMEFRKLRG
Summary of the method: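 Recombinant human HPK1 preincubated with compound 60 min at 25 °C, then reaction with MBP (0.2 ug/ul, 2× stock) and ATP (20 μM, 2× stock) 60 min at 25 °C. ADP formed detected by ADP-Glo after ATP depletion and conversion to ATP; IC50 calculated from signal.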

HPK1 p-SLP-76 = HPK1 p-SLP-76 inhibition assay in human PBMC (HTRF); format: cell-based; conditions: 6 h compound, anti-CD3 stimulation 20 min
Protocol: Human PBMC were purchased from OriCells (FPB004F-C). Before compound treatment, PBMC were starved in PRMI-1640 medium supplemented with 0.5% FBS overnight. The cell density was adjusted to 1*10^7 cells/mL in assay medium (RPMI-1640 no phenol red with 0.5% FBS) and 16 μL cell suspension was transferred per well to a 384-well plate (Corning #3765). 6× solution of test compound was prepared in assay medium and 4 μL was added per well to the 384-well plate. The plate was then incubated at 37° C., 5% CO2 for 6 h. PBMC in 384-well plate were stimulated with anti-CD3 (BD Biosciences #555329, final conc. is 10 ug/mL) for 20 min at 37° C., 5% CO2 by adding 4 μL 6× antibody solution per well. Phospho-SLP76 HTRF kit was purchased from Cisbio (63ADK076PEH). 8 μL 4× Lysis Buffer was added to 384-well plate after anti-CD3 stimulation. The plate was centrifuged at 1,000 rpm for 1 min, shaken at 250 rpm for 60 min and centrifuged again at 1,000 rpm for 5 min. Afterwards the cell lysates were transferred to the assay plate (Greiner #784075) with 16 μL per well. 4 μL detection antibody mix per well prepared in Detection Buffer was added to the assay plate, followed by centrifugation at 1,000 rpm for 1 min and incubation at 25° C. overnight.

HPK1 protein [2] = biological target: T2, HPK1 protein (Homo sapiens, UniProt Q92918); test: HPK1 protein degradation in human PBMC (western blot); format: cell-based; conditions: 18 h incubation
T2 construct: Frozen human PBMC were purchased from Shanghai OribioTech; host or cells: human PBMC
Protocol: HPK1 protein degradation in human PBMC: Frozen human PBMC were purchased from Shanghai OribioTech and recovered with culture medium (RMPI1640) prior to use. The cells were then incubated with a variety of concentrations of compound. After incubation for 18 h, the cells were collected and lysed. The protein concentration was determined by BCA protein assay kit from Thermo (23227). The HPK1 protein level was determined by western blots, using anti-human HPK1 polyclonal antibody from CST (4472S). Proteins were loaded into each well of the pre-casting gels and subjected to electrophoretic separation by SDS-PAGE. The protein resolved by SDS-PAGE were transferred to PVDF, blocked by 5% skim milk, and probed with anti-human HPK1 antibody or β-actin antibody from CST (3700S), using standard western blotting procedure.
T2 sequence (Q92918 whole entry): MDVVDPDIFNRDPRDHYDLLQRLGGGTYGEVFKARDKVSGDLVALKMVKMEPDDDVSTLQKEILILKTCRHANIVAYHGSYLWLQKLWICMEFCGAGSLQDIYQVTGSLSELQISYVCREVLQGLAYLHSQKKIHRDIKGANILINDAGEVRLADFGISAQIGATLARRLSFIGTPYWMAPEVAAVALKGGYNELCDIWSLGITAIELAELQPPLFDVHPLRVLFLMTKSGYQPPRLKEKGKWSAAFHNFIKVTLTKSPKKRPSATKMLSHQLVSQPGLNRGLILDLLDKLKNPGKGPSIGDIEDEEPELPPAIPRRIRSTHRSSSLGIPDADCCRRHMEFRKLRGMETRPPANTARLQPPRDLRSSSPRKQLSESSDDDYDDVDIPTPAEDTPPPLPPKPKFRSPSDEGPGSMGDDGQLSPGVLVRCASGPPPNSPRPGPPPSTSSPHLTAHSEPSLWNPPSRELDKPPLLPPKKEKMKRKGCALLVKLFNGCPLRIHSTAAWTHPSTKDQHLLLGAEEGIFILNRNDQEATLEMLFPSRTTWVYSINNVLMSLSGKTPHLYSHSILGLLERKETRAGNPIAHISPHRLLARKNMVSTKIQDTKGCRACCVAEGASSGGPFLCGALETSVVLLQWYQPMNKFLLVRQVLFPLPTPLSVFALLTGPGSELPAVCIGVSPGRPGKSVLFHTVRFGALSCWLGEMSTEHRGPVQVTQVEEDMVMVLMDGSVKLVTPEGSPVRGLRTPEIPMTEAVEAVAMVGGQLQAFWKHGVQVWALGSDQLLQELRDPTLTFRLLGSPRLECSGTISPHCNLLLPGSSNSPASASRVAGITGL

HPK1 protein [3] = biological target: T3, HPK1 protein (Mus musculus, UniProt P70218); test: HPK1 protein degradation in mouse pan T cell (western blot); format: cell-based; conditions: 18 h incubation
T3 construct: the CD3+ T cell population was isolated from spleenocytes of mice; endogenous in cells; host or cells: primary mouse splenic CD3+ (pan) T cells
T3 sequence (P70218 1-827): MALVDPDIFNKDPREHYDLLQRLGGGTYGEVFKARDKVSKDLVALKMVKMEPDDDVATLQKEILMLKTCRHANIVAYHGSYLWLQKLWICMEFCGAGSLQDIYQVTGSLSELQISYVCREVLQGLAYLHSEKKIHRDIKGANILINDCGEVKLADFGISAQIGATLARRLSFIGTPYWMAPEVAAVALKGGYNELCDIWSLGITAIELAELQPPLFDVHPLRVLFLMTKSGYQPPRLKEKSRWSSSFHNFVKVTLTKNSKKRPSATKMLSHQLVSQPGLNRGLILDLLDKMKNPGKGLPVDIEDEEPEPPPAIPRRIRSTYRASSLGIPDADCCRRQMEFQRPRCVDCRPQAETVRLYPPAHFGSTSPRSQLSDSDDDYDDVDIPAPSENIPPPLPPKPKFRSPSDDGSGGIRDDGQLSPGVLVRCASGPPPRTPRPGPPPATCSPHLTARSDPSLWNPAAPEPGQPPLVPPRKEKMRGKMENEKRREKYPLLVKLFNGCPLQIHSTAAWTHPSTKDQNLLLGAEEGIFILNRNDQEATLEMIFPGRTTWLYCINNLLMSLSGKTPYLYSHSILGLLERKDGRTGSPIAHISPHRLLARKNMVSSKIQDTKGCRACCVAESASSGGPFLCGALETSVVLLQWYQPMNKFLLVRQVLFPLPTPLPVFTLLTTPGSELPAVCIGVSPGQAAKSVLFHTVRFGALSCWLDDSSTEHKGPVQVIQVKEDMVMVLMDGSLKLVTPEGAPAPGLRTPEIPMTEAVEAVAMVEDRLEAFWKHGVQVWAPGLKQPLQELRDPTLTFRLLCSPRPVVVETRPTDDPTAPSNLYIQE
Summary of the method: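 CD3+ pan T cells were isolated from mouse splenocytes and incubated 18 h with a range of compound concentrations. Lysates were normalised by BCA and run on SDS-PAGE. HPK1 was detected by western blot with an anti-human HPK1 polyclonal antibody, with β-actin as loading control.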

| Compound | IC50 (HPK1 protein [1]) [nM] | IC50 (HPK1 p-SLP-76) [nM] | Dmax (HPK1 protein [2]) [%] | Dmax (HPK1 protein [3]) [%] |
| --- | --- | --- | --- | --- |
| O=C1CCN(c2cccc3cc(N4CCC(OCCN5CCN(c6cccc(-c7cnc8[nH]cc(C9CC9)c8c7Cl)n6)C(=O)C5)CC4)ccc23)C(=O)N1 [Example 72] | 10 to 100 | 300 to 3000 | 30 | – |
| O=C1CCC(N2Cc3cc(C4=CCN(CCCN5CCN(c6cccc(-c7cnc8[nH]cc(C9CC9)c8c7Cl)c6)C(=O)C5)CC4)ccc3C2=O)C(=O)N1 (stereo not drawn) [Example 56, 3-(5-(1-(3-(4-(3-(4-chloro-3-cyclopropyl-1H-pyrrolo[2,3-b]pyridin-5-yl)phenyl)-3-oxopiperazin-1-yl)propyl)-1,2,3,6-tetrahydropyridin-4-yl)-1-oxoisoindolin-2-yl)piperidine-2,6-dione] | ≤ 10 | 300 to 3000 | 98 | 95 |
| O=C1CCC(N2Cc3cc(C4CCN(CCCN5CCN(c6cccc(-c7cnc8[nH]cc(C9CC9)c8c7Cl)c6)C(=O)C5)CC4)ccc3C2=O)C(=O)N1 (stereo not drawn) [Example 54, 3-(5-(1-(3-(4-(3-(4-chloro-3-cyclopropyl-1H-pyrrolo[2,3-b]pyridin-5-yl)phenyl)-3-oxopiperazin-1-yl)propyl)piperidin-4-yl)-1-oxoisoindolin-2-yl)piperidine-2,6-dione] | ≤ 10 | ≤ 300 | 83 | 95 |
| CCc1c[nH]c2ncc(-c3cccc(N4CCN(CCCN5CCN(c6cc7c(cc6F)C(=O)N(C6CCC(=O)NC6=O)C7=O)CC5)CC4=O)c3)c(Cl)c12 (stereo not drawn) [Example 25] | 10 to 100 | 300 to 3000 | 96 | 96 |
| O=C1CCN(c2cccc3cc(N4CCN(CCCN5CCN(c6cccc(-c7cnc8[nH]cc(C9CC9)c8c7Cl)n6)C(=O)C5)CC4)ccc23)C(=O)N1 [Example 69, 1-(6-(4-(3-(4-(6-(4-chloro-3-cyclopropyl-1H-pyrrolo[2,3-b]pyridin-5-yl)pyridin-2-yl)-3-oxopiperazin-1-yl)propyl)piperazin-1-yl)naphthalen-1-yl)dihydropyrimidine-2,4 (1H,3H)-dione] | ≤ 10 | 300 to 3000 | 74 | – |
| CCc1c[nH]c2ncc(-c3cccc(N4CCN(C(=O)COC5CCN(c6ccc7c(c6)C(=O)N(C6CCC(=O)NC6=O)C7=O)CC5)CC4=O)c3)c(Cl)c12 (stereo not drawn) [Example 16, 5-(4-(2-(4-(3-(4-chloro-3-ethyl-1H-pyrrolo[2,3-b]pyridin-5-yl)phenyl)-3-oxopiperazin-1-yl)-2-oxoethoxy)piperidin-1-yl)-2-(2,6-dioxopiperidin-3-yl)isoindoline-1,3-dione] | ≤ 10 | ≤ 300 | 96 | 80 |
| CCc1c[nH]c2ncc(-c3cccc(N4CCN(CC5CCN(c6cc7c(cc6F)C(=O)N(C6CCC(=O)NC6=O)C7=O)CC5)CC4=O)c3)c(Cl)c12 (stereo not drawn) [Example 38, 5-(4-((4-(3-(4-chloro-3-ethyl-1H-pyrrolo[2,3-b]pyridin-5-yl)phenyl)-3-oxopiperazin-1-yl)methyl)piperidin-1-yl)-2-(2,6-dioxopiperidin-3-yl)-6-fluoro isoindoline-1,3-dione] | 10 to 100 | – | 30 | 90 |
| O=C1CCC(N2C(=O)c3cc(F)c(N4CCC(OCCCN5CCN(c6cccc(-c7cnc8[nH]cc(CC(F)F)c8c7Cl)c6)C(=O)C5)CC4)cc3C2=O)C(=O)N1 (stereo not drawn) [Example 39, 5-(4-(3-(4-(3-(4-chloro-3-(2,2-difluoroethyl)-1H-pyrrolo[2,3-b]pyridin-5-yl)phenyl)-3-oxopiperazin-1-yl)propoxy)piperidin-1-yl)-2-(2,6-dioxopiperidin-3-yl)-6-fluoroisoindoline-1,3-dione] | 100 to 1000 | – | 85 | 80 |
| CCc1c[nH]c2ncc(-c3cccc(N4CCN(S(=O)(=O)CCCN5CCN(c6ccc7c(c6)C(=O)N(C6CCC(=O)NC6=O)C7=O)CC5)CC4=O)c3)c(Cl)c12 (stereo not drawn) [Example 99, 5-(4-(3-((4-(3-(4-chloro-3-ethyl-1H-pyrrolo[2,3-b]pyridin-5-yl)phenyl)-3-oxopiperazin-1-yl)sulfonyl)propyl)piperazin-1-yl)-2-(2,6-dioxopiperidin-3-yl)isoindoline-1,3-dione] | 10 to 100 | ≤ 300 | 99 | 90 |
| CCc1c[nH]c2ncc(-c3cccc(N4CCN(CCCOC5CCN(c6ccc7c(c6)C(=O)N(C6CCC(=O)NC6=O)C7=O)CC5)CC4=O)c3)c(Cl)c12 (stereo not drawn) [Example 35, 5-(4-(3-(4-(3-(4-chloro-3-ethyl-1H-pyrrolo[2,3-b]pyridin-5-yl)phenyl)-3-oxopiperazin-1-yl)propoxy)piperidin-1-yl)-2-(2,6-dioxopiperidin-3-yl)isoindoline-1,3-dione] | 10 to 100 | 300 to 3000 | 90 | 95 |
| CCc1c[nH]c2ncc(-c3cccc(N4CCN(CCN5CCN(c6ccc7c(c6)C(=O)N(C6CCC(=O)NC6=O)C7=O)CC5)CC4=O)c3)c(Cl)c12 (stereo not drawn) [Example 28, 5-(4-(2-(4-(3-(4-chloro-3-ethyl-1H-pyrrolo[2,3-b]pyridin-5-yl)phenyl)-3-oxopiperazin-1-yl)ethyl)piperazin-1-yl)-2-(2,6-dioxopiperidin-3-yl)isoindoline-1,3-dione] | 10 to 100 | 300 to 3000 | 80 | – |
| O=C1CCC(N2C(=O)c3cc(F)c(N4CCC(OCCCN5CCN(c6cccc(-c7cnc8[nH]cc(C9CC9)c8c7Cl)c6)C(=O)C5)CC4)cc3C2=O)C(=O)N1 (stereo not drawn) [Example 40, 5-(4-(3-(4-(3-(4-chloro-3-cyclopropyl-1H-pyrrolo[2,3-b]pyridin-5-yl)phenyl)-3-oxopiperazin-1-yl)propoxy)piperidin-1-yl)-2-(2,6-dioxopiperidin-3-yl)-6-fluoroisoindoline-1,3-dione] | 10 to 100 | – | 88 | 95 |
| O=C1CCC(N2Cc3cc(N4CCC(OCC(=O)N5CCN(c6cccc(-c7cnc8[nH]cc(C9CC9)c8c7Cl)c6)C(=O)C5)CC4)ccc3C2=O)C(=O)N1 (stereo not drawn) [Example 47] | ≤ 10 | – | 85 | 95 |
